Reference: patent US20100190788A1, “Amide derivatives as kinase inhitors” (priority 2005, published 2010)
Where a name gives a salt, the structure may show the parent alone.

Each compound was assayed against T1, human ROCKα/ROCKII mix (Homo sapiens, UniProt O75116) (assay: ROCK inhibition, fluorescence polarization (FP) assay with ROCK IMAP Kit). Details: Table 3, compounds of Formula III20.
T1 construct: purchased Upstate Biotechnology 14-451
Assay type: biochemical

T1 sequence (O75116 whole entry): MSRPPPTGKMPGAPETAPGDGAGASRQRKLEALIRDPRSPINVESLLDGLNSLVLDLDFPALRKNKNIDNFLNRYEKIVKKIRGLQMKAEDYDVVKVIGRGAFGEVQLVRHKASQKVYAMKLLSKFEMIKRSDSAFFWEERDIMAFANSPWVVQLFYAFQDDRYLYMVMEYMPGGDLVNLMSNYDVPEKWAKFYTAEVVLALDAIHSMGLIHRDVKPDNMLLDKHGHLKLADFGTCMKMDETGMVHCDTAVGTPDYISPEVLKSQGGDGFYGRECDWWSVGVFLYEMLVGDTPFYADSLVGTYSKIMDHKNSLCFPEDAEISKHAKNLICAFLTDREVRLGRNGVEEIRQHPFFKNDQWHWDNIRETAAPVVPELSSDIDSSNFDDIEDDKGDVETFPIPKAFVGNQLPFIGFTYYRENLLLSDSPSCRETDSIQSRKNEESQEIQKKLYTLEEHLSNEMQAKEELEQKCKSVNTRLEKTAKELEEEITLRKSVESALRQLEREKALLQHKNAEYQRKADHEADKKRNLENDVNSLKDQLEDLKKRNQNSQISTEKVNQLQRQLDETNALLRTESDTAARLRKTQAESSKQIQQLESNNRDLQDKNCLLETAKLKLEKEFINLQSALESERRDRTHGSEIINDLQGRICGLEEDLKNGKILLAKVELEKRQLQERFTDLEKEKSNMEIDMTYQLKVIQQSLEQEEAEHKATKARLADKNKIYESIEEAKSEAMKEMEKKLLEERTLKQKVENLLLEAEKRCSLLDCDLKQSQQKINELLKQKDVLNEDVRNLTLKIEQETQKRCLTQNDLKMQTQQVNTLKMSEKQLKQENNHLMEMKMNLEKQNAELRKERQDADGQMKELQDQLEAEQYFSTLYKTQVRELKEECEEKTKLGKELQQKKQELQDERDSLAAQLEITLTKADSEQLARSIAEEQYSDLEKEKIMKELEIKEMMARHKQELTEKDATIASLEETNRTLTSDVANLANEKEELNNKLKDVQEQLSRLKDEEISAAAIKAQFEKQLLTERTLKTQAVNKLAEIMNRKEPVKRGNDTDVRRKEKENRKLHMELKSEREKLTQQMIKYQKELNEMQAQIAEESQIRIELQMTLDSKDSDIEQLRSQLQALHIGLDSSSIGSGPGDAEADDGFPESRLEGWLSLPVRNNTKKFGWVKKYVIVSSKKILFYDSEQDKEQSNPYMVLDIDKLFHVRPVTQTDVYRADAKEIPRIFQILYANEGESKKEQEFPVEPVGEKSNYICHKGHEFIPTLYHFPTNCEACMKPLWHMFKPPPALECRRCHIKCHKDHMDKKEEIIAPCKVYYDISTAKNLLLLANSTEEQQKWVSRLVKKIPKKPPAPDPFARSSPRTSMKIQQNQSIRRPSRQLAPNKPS

SMILES	IC50
CC(C)N1CCN(C(=O)CC(N)c2ccc(C(=O)Nc3ccncc3)cc2)CC1 (centres unmarked) [Compound 114, 4-[1-amino-3-(4-isopropyl-piperazin-1-yl)-3-oxo-propyl]-N-pyridin-4-yl-benzamide]	< 0.5 µM
NC(CC(=O)N1CCN(CCO)CC1)c1ccc(C(=O)Nc2ccncc2)cc1 (centres unmarked) [Compound 115, 4-{1-amino-3-[4-(2-hydroxy-ethyl)-piperazin-1-yl]-3-oxo-propyl}-N-pyridin-4-yl-benzamide]	< 0.5 µM
NC(CC(=O)N1CCN(c2ccccc2)CC1)c1ccc(C(=O)Nc2ccncc2)cc1 (centres unmarked) [Compound 116, 4-[1-amino-3-oxo-3-(4-phenyl-piperazin-1-yl)-propyl]-N-pyridin-4-yl-benzamide]	< 0.5 µM
NC(CC(=O)N1CCC(c2ccccc2)CC1)c1ccc(C(=O)Nc2ccncc2)cc1 (centres unmarked) [Compound 117, 4-[1-amino-3-(4-phenyl-piperidin-1-yl)-3-oxo-propyl]-N-pyridin-4-yl-benzamide]	< 0.5 µM
NC(CC(=O)N1CC=C(c2ccc(F)cc2)CC1)c1ccc(C(=O)Nc2ccncc2)cc1 (centres unmarked) [Compound 118, 4-{1-amino-3[4-(4-fluoro-phenyl)-3,6-dihydro-2H-pyridin-1-yl]-3-oxo-propyl}-N-pyridin-4-yl-benzamide]	< 0.5 µM
NC(CC(=O)N1CCC(Cc2ccccc2)CC1)c1ccc(C(=O)Nc2ccncc2)cc1 (centres unmarked) [Compound 119, 4-[1-amino-3-(4-benzyl-piperidin-1-yl)-3-oxo-propyl]-N-pyridin-4-yl-benzamide]	< 0.5 µM
NC(CC(=O)N1CCC(c2nc3ccccc3o2)CC1)c1ccc(C(=O)Nc2ccncc2)cc1 (centres unmarked) [Compound 120, 4-[1-amino-3-(4-benzooxazol-2-yl-piperidin-1-yl)-3-oxo-propyl]-N-pyridin-4-yl-benzamide]	< 0.5 µM
COc1ccc(CN2CCN(C(=O)CC(N)c3ccc(C(=O)Nc4ccncc4)cc3)CC2)cc1 (centres unmarked) [Compound 121, 4-{1-Amino-3-[4-(4-methoxy-benzyl)-piperazin-1-yl]-3-oxo-propyl}-N-pyridin-4-yl-benzamide]	0.5 to 5 µM
NC(CC(=O)N1CCN(Cc2ccccc2F)CC1)c1ccc(C(=O)Nc2ccncc2)cc1 (centres unmarked) [Compound 122, 4-{1-amino-3-[4-(2-fluoro-benzyl)-piperazin-1-yl]-3-oxo-propyl}-N-pyridin-4-yl-benzamide]	< 0.5 µM
NC(CC(=O)N1CCN(Cc2ccc(F)cc2)CC1)c1ccc(C(=O)Nc2ccncc2)cc1 (centres unmarked) [Compound 123, 4-{1-amino-3-[4-(4-fluoro-benzyl)-piperazin-1-yl]-3-oxo-propyl}-N-pyridin-4-yl-benzamide]	< 0.5 µM
NC(CC(=O)N1CCN(C(=O)c2ccco2)CC1)c1ccc(C(=O)Nc2ccncc2)cc1 (centres unmarked) [Compound 124, 4-{1-amino-3-[4-(furan-2-carbonyl)-piperazin-1-yl]-3-oxo-propyl}-N-pyridin-4-yl-benzamide]	< 0.5 µM
NC(CC(=O)N1CCC(c2c[nH]c3ccccc23)CC1)c1ccc(C(=O)Nc2ccncc2)cc1 (centres unmarked) [Compound 125, 4-{1-amino-3-[4-(1H-indol-3-yl)-piperidin-1-yl]-3-oxo-propyl}-N-pyridin-4-yl-benzamide]	< 0.5 µM
COC(=O)c1ccc2c(c1)CCN(C(=O)CC(N)c1ccc(C(=O)Nc3ccncc3)cc1)C2 (centres unmarked) [Compound 126, 2-{3-amino-3-[4-(pyridin-4-ylcarbamoyl)-phenyl]-propionyl}-1,2,3,4-tetrahydro-isoquinoline-6-carboxylic acid methyl ester]	0.5 to 5 µM
COC(=O)c1ccc(C2CCCCN2C(=O)CC(N)c2ccc(C(=O)Nc3ccncc3)cc2)cc1 (centres unmarked) [Compound 127, 4(1-{3-amino-3-[4-(pyridin-4-ylcarbamoyl)-phenyl]-propionyl}-piperidin-2-yl)-benzoic acid methyl ester]	< 0.5 µM
NC(CC(=O)N1CCc2c([nH]c3ccccc23)C1)c1ccc(C(=O)Nc2ccncc2)cc1 (stereo not drawn) [Compound 128, 4-[1-amino-3-oxo-(1,3,4,9-tetrahydro-β-carbolin-2-yl)-propyl]-N-pyridin-4-yl-benzamide]	< 0.5 µM
NC(CC(=O)N1CCc2c([nH]c3ccccc23)C1c1cccc(Cl)c1)c1ccc(C(=O)Nc2ccncc2)cc1 (stereo not drawn) [Compound 129, 4-{1-amino-3-[1-(3-chloro-phenyl)-1,3,4,9-tetrahydro-β-carbolin-2-yl]-3-oxo-propyl}-N-pyridin-4-yl-benzamide]	0.5 to 5 µM
COc1ccc(C2c3[nH]c4ccccc4c3CCN2C(=O)CC(N)c2ccc(C(=O)Nc3ccncc3)cc2)cc1Br (stereo not drawn) [Compound 130, 4-{1-amino-3-[1-(3-bromo-4-methoxy-phenyl)-1,3,4,9-tetrahydro-β-carbolin-2-yl]-3-oxo-propyl}-N-pyridin-4-yl-benzamide]	0.5 to 5 µM
NC(CC(=O)N1CCc2ccccc2C1)c1ccc(C(=O)Nc2ccncc2)cc1 (centres unmarked) [Compound 131, 4-[1-amino-3-(3,4-dihydro-1H-isoquinolin-2-yl)-3-oxo-propyl]-N-pyridin-4-yl-benzamide]	< 0.5 µM

Same assay, conditions: Table 4, compounds 132 to 156

SMILES	IC50
COc1ccc(S(=O)(=O)N2CCCC2C(N)c2ccc(C(=O)Nc3ccncc3)cc2)cc1 (centres unmarked) [Compound 132, 4-{Amino-[1-(4-methoxy-benzenesulfonyl)-pyrrolidin-2-yl]-methyl}-N-pyridin-4-yl-benzamide dihydrochloric acid salt]	0.5 to 5 µM
NC(c1ccc(C(=O)Nc2ccncc2)cc1)C1CCCN1S(=O)(=O)c1ccccc1Cl (centres unmarked) [Compound 133, 4-{Amino-[1-(2-chloro-benzenesulfonyl)-pyrrolidin-2-yl]-methyl}-N-pyridin-4-yl-benzamide dihydrochloric acid salt]	0.5 to 5 µM
NC(c1ccc(C(=O)Nc2ccncc2)cc1)C1CCCN1S(=O)(=O)c1cccc(Cl)c1 (centres unmarked) [Compound 134, 4-{Amino-[1-(3-chloro-benzenesulfonyl)-pyrrolidin-2-yl]-methyl}-N-pyridin-4-yl-benzamide dihydrochloric acid salt]	0.5 to 5 µM
NC(c1ccc(C(=O)Nc2ccncc2)cc1)C1CCCN1S(=O)(=O)c1ccc(Cl)cc1 (centres unmarked) [Compound 135, 4-{Amino-[1-(4-chloro-benzenesulfonyl)-pyrrolidin-2-yl]-methyl}-N-pyridin-4-yl-benzamide dihydrochloric acid salt]	0.5 to 5 µM
NC(c1ccc(C(=O)Nc2ccncc2)cc1)C1CCCN1S(=O)(=O)c1ccccc1F (centres unmarked) [Compound 136, 4-{Amino-[1-(2-fluoro-benzenesulfonyl)-pyrrolidin-2-yl]-methyl}-N-pyridin-4-yl-benzamide dihydrochloric acid salt]	0.5 to 5 µM
NC(c1ccc(C(=O)Nc2ccncc2)cc1)C1CCCN1S(=O)(=O)c1cccc(F)c1 (centres unmarked) [Compound 137, 4-{Amino-[1-(3-fluoro-benzenesulfonyl)-pyrrolidin-2-yl]-methyl}-N-pyridin-4-yl-benzamide dihydrochloric acid salt]	0.5 to 5 µM
NC(c1ccc(C(=O)Nc2ccncc2)cc1)C1CCCN1S(=O)(=O)c1ccc(F)cc1 (centres unmarked) [Compound 138, 4-{Amino-[1-(4-fluoro-benzenesulfonyl)-pyrrolidin-2-yl]-methyl}-N-pyridin-4-yl-benzamide dihydrochloric acid salt]	0.5 to 5 µM
CN(CC(N)c1ccc(C(=O)Nc2ccncc2)cc1)S(=O)(=O)c1ccccc1 (centres unmarked) [Compound 139, 4-[1-Amino-2-(benzenesulfonyl-methyl-amino)-ethyl]-N-pyridin-4-yl-benzamide dihydrochloric acid salt]	0.5 to 5 µM
CN(CC(N)c1ccc(C(=O)Nc2ccncc2)cc1)S(=O)(=O)c1ccc(F)cc1 (centres unmarked) [Compound 140, 4-{1-Amino-2-[(4-fluoro-benzenesulfonyl)-methyl-amino]-ethyl}-N-pyridin-4-yl-benzamide dihydrochloric acid salt]	0.5 to 5 µM
CN(CC(N)c1ccc(C(=O)Nc2ccncc2)cc1)S(=O)(=O)c1cccc(F)c1 (centres unmarked) [Compound 141, 4-{1-Amino-2-[(3-fluoro-benzenesulfonyl)-methyl-amino]-ethyl}-N-pyridin-4-yl-benzamide dihydrochloric acid salt]	0.5 to 5 µM
CN(CC(N)c1ccc(C(=O)Nc2ccncc2)cc1)S(=O)(=O)c1ccccc1F (centres unmarked) [Compound 142, 4-{1-Amino-2-[(2-fluoro-benzenesulfonyl)-methyl-amino]-ethyl}-N-pyridin-4-yl-benzamide dihydrochloric acid salt]	0.5 to 5 µM
CN(CC(N)c1ccc(C(=O)Nc2ccncc2)cc1)S(=O)(=O)c1ccccc1Cl (centres unmarked) [Compound 143, 4-{1-Amino-2-[(2-chloro-benzenesulfonyl)-methyl-amino]-ethyl}-N-pyridin-4-yl-benzamide dihydrochloric acid salt]	0.5 to 5 µM
CN(CC(N)c1ccc(C(=O)Nc2ccncc2)cc1)S(=O)(=O)c1cccc(Cl)c1 (centres unmarked) [Compound 144, 4-{1-Amino-2-[(3-chloro-benzenesulfonyl)-methyl-amino]-ethyl}-N-pyridin-4-yl-benzamide dihydrochloric acid salt]	0.5 to 5 µM
CN(CC(N)c1ccc(C(=O)Nc2ccncc2)cc1)S(=O)(=O)c1ccc(Cl)cc1 (centres unmarked) [Compound 145, 4-{1-Amino-2-[(4-chloro-benzenesulfonyl)-methyl-amino]-ethyl}-N-pyridin-4-yl-benzamide dihydrochloric acid salt]	0.5 to 5 µM
COc1ccc(S(=O)(=O)N(C)CC(N)c2ccc(C(=O)Nc3ccncc3)cc2)cc1 (centres unmarked) [Compound 146, 4-{1-Amino-2-[(4-methoxy-benzenesulfonyl)-methyl-amino]-ethyl}-N-pyridin-4-yl-benzamide dihydrochloric acid salt]	< 0.5 µM
N[C@H](CC(=O)N1CCC[C@@H]1c1cccc(F)c1)c1ccc(C(=O)Nc2ccncc2)cc1 [Compound 149, 4-{(R)-1-Amino-3-[(R)-2-(3-fluoro-phenyl)-pyrrolidin-1-yl]-3-oxo-propyl}-N-pyridin-4-yl-benzamide dihydrochloric acid salt]	< 0.5 µM
N[C@H](CC(=O)N1CCC[C@H]1c1cccc(F)c1)c1ccc(C(=O)Nc2ccncc2)cc1 [Compound 150, 4-{(R)-1-Amino-3-[(S)-2-(3-fluoro-phenyl)-pyrrolidin-1-yl]-3-oxo-propyl}-N-pyridin-4-yl-benzamide dihydrochloric acid salt]	< 0.5 µM
